Consider 19 compounds from US5843889A, “Glycopeptide antibiotic derivatives” (Eli Lilly and Company, priority 1997, dated 1998).

Test in all cases: MIC, standard broth micro-dilution assay
Holding throughout (format): cell-based

Assay [1] concerns Entercoccus gallinarum 245. How it is done:
(§1) The formula I compounds have in vitro and in vivo activity against Gram-positive pathogenic bacteria. The MIC's were determined using a standard broth micro-dilution assay.

The next assay deals with Entercoccus faecalis 276. How it is done:
as §1

Assay [2] concerns Entercoccus faecalis 2041. How it is done:
as §1

Structures are written as SMILES. Converted amounts (≈) assume the structure as drawn. Some results are limits rather than exact numbers.

By MIC is commonly meant the lowest concentration that inhibits growth of the organism. Lower therefore signals greater potency. As to `CNC(CC(C)C)C(=O)NC1C(=O)NC(CC(N)=O)C(=O)NC2C(=O)NC3C(=O)NC(C(=O)NC(C(=O)O)c4cc(O)cc(O)c4-c4cc3ccc4O)C(OC3CC(C)(N)C(O)C(C)O3)c3ccc(c(Cl)c3)Oc3cc2cc(c3OC2OC(CO)C(O)C(O)C2OC2CC(C)(NCc3cccc(OC(=O)C4CCCCC4)c3)C(O)C(C)O2)Oc2ccc(cc2Cl)C1O` (stereo not drawn) [Compound 165, 3-cyclohexanoyloxybenzyl], the MIC in assay [1] is 4 µg/mL (≈ 2.21 µM); with Entercoccus faecalis 276 it was 0.5 µg/mL (≈ 0.276 µM); in assay [2] it was at most 0.06 µg/mL.
The matching figures for `CNC(CC(C)C)C(=O)NC1C(=O)NC(CC(N)=O)C(=O)NC2C(=O)NC3C(=O)NC(C(=O)NC(C(=O)O)c4cc(O)cc(O)c4-c4cc3ccc4O)C(OC3CC(C)(N)C(O)C(C)O3)c3ccc(c(Cl)c3)Oc3cc2cc(c3OC2OC(CO)C(O)C(O)C2OC2CC(C)(NCc3ccccc3O)C(O)C(C)O2)Oc2ccc(cc2Cl)C1O` (stereo not drawn) [Compound 169, 2-hydroxybenzyl]: 4 µg/mL (≈ 2.35 µM), at most 0.06 µg/mL and at most 0.06 µg/mL.
`CNC(CC(C)C)C(=O)NC1C(=O)NC(CC(N)=O)C(=O)NC2C(=O)NC3C(=O)NC(C(=O)NC(C(=O)O)c4cc(O)cc(O)c4-c4cc3ccc4O)C(OC3CC(C)(N)C(O)C(C)O3)c3ccc(c(Cl)c3)Oc3cc2cc(c3OC2OC(CO)C(O)C(O)C2OC2CC(C)(NCC3=CCC4CC3C4(C)C)C(O)C(C)O2)Oc2ccc(cc2Cl)C1O` (stereo not drawn) [Compound 170]: the MIC in assay [1] is 4 µg/mL (≈ 2.32 µM); against Entercoccus faecalis 276 it was 0.5 µg/mL (≈ 0.29 µM); in assay [2], at most 0.06 µg/mL.
Consider `CNC(CC(C)C)C(=O)NC1C(=O)NC(CC(N)=O)C(=O)NC2C(=O)NC3C(=O)NC(C(=O)NC(C(=O)O)c4cc(O)cc(O)c4-c4cc3ccc4O)C(OC3CC(C)(N)C(O)C(C)O3)c3ccc(c(Cl)c3)Oc3cc2cc(c3OC2OC(CO)C(O)C(O)C2OC2CC(C)(NCc3ccc(OS(=O)(=O)c4c(C)c(C)c(C)c(C)c4C)cc3)C(O)C(C)O2)Oc2ccc(cc2Cl)C1O` (stereo not drawn) [Compound 173, 4-[[2,3,4,5,6-pentamethyl]phenylsulfonyloxy]benzyl], for which the MIC is 4 µg/mL (≈ 2.1 µM) in assay [1], 2 µg/mL (≈ 1.05 µM) in the assay on Entercoccus faecalis 276 and 0.5 µg/mL (≈ 0.262 µM) in assay [2].
With `CNC(CC(C)C)C(=O)NC1C(=O)NC(CC(N)=O)C(=O)NC2C(=O)NC3C(=O)NC(C(=O)NC(C(=O)O)c4cc(O)cc(O)c4-c4cc3ccc4O)C(OC3CC(C)(N)C(O)C(C)O3)c3ccc(c(Cl)c3)Oc3cc2cc(c3OC2OC(CO)C(O)C(O)C2OC2CC(C)(NCc3ccc(S(=O)(=O)N4CCCC4)cc3)C(O)C(C)O2)Oc2ccc(cc2Cl)C1O` (stereo not drawn) [Compound 174, 4-[1-pyrrolidinosulfonyl]benzyl], the results for the MIC (in assay [1]; in the assay with Entercoccus faecalis 276; in assay [2]) were 16 µg/mL (≈ 8.81 µM), at most 0.06 µg/mL and at most 0.06 µg/mL, respectively.
On to `CNC(CC(C)C)C(=O)NC1C(=O)NC(CC(N)=O)C(=O)NC2C(=O)NC3C(=O)NC(C(=O)NC(C(=O)O)c4cc(O)cc(O)c4-c4cc3ccc4O)C(OC3CC(C)(N)C(O)C(C)O3)c3ccc(c(Cl)c3)Oc3cc2cc(c3OC2OC(CO)C(O)C(O)C2OC2CC(C)(NCCCc3ccc(OC)cc3)C(O)C(C)O2)Oc2ccc(cc2Cl)C1O` (stereo not drawn) [Compound 175, 3-[4-methoxyphenyl]propyl], for which the MIC in assay [1] was 4 µg/mL (≈ 2.3 µM); against Entercoccus faecalis 276, at most 0.06 µg/mL; in assay [2], at most 0.06 µg/mL.
Consider `CNC(CC(C)C)C(=O)NC1C(=O)NC(CC(N)=O)C(=O)NC2C(=O)NC3C(=O)NC(C(=O)NC(C(=O)O)c4cc(O)cc(O)c4-c4cc3ccc4O)C(OC3CC(C)(N)C(O)C(C)O3)c3ccc(c(Cl)c3)Oc3cc2cc(c3OC2OC(CO)C(O)C(O)C2OC2CC(C)(NCc3ccc(N(C)c4ccccc4)cc3)C(O)C(C)O2)Oc2ccc(cc2Cl)C1O` (stereo not drawn) [Compound 178, 4-[N-methylanilino]benzyl], for which the MIC was 2 µg/mL (≈ 1.12 µM) in assay [1], 0.5 µg/mL (≈ 0.28 µM) against Entercoccus faecalis 276 and at most 0.06 µg/mL in assay [2].
Regarding `CNC(CC(C)C)C(=O)NC1C(=O)NC(CC(N)=O)C(=O)NC2C(=O)NC3C(=O)NC(C(=O)NC(C(=O)O)c4cc(O)cc(O)c4-c4cc3ccc4O)C(OC3CC(C)(N)C(O)C(C)O3)c3ccc(c(Cl)c3)Oc3cc2cc(c3OC2OC(CO)C(O)C(O)C2OC2CC(C)(NCCc3ccc4ccccc4c3)C(O)C(C)O2)Oc2ccc(cc2Cl)C1O` (stereo not drawn) [Compound 179, 2-[2-napthyl]ethyl], the MIC in assay [1] was 1 µg/mL (≈ 0.573 µM); in the assay with Entercoccus faecalis 276 it was at most 0.06 µg/mL; in assay [2], at most 0.06 µg/mL.
With `CNC(CC(C)C)C(=O)NC1C(=O)NC(CC(N)=O)C(=O)NC2C(=O)NC3C(=O)NC(C(=O)NC(C(=O)O)c4cc(O)cc(O)c4-c4cc3ccc4O)C(O)c3ccc(c(Cl)c3)Oc3cc2cc(c3OC2OC(CO)C(O)C(O)C2OC2CC(C)(NCc3cccc4ccccc34)C(O)C(C)O2)Oc2ccc(cc2Cl)C1O` (stereo not drawn) [Compound 180, 1-napthylmethyl], the minimal inhibitory concentration (MIC) in assay [1] was determined as 0.25 µg/mL (≈ 0.157 µM); in the assay on Entercoccus faecalis 276, 2 µg/mL (≈ 1.26 µM); in assay [2], 0.25 µg/mL (≈ 0.157 µM).
Take `CNC(CC(C)C)C(=O)NC1C(=O)NC(CC(N)=O)C(=O)NC2C(=O)NC3C(=O)NC(C(=O)NC(C(=O)O)c4cc(O)cc(O)c4-c4cc3ccc4O)C(OC3CC(C)(N)C(O)C(C)O3)c3ccc(cc3)Oc3cc2cc(c3OC2OC(CO)C(O)C(O)C2OC2CC(C)(NCc3ccc(-c4ccccc4)cc3)C(O)C(C)O2)Oc2ccc(cc2Cl)C1O` (stereo not drawn) [Compound 182, 4-phenylbenzyl]: the minimal inhibitory concentration (MIC) (in assay [1]; against Entercoccus faecalis 276; in assay [2]) was 1 µg/mL (≈ 0.58 µM) throughout.
Take `CNC(CC(C)C)C(=O)NC1C(=O)NC(CC(N)=O)C(=O)NC2C(=O)NC3C(=O)NC(C(=O)NC(C(=O)O)c4cc(O)cc(O)c4-c4cc3ccc4O)C(OC3CC(C)(N)C(O)C(C)O3)c3ccc(cc3)Oc3cc2cc(c3OC2OC(CO)C(O)C(O)C2OC2CC(C)(NCc3ccc(Oc4ccccc4)cc3)C(O)C(C)O2)Oc2ccc(cc2)C1O` (stereo not drawn) [Compound 184, 4-phenoxybenzyl]: the values for the minimum inhibitory concentration (MIC) (in assay [1]; in the assay with Entercoccus faecalis 276; in assay [2]) were 4 µg/mL (≈ 2.34 µM), 0.5 µg/mL (≈ 0.293 µM) and 1 µg/mL (≈ 0.586 µM), respectively.
Turning to `CNC(CC(C)C)C(=O)NC1C(=O)NC(CC(N)=O)C(=O)NC2C(=O)NC3C(=O)NC(C(=O)NC(C(=O)O)c4cc(O)cc(O)c4-c4cc3ccc4O)C(OC3CC(C)(N)C(O)C(C)O3)c3ccc(c(Cl)c3)Oc3cc2cc(c3OC2OC(CO)C(O)C(O)C2OC2CC(C)(NCc3ccc(-c4ccccc4)cc3)C(O)C(C)O2)Oc2ccc(cc2)C1O` (stereo not drawn) [Compound 185, 4-phenylbenzyl], the MIC entry (in assay [1]; in the assay with Entercoccus faecalis 276; in assay [2]) was “≤ .06 µg/mL” each time.
As to `CCCCCCCCCCC#CCNC1(C)CC(OC2C(Oc3c4cc5cc3Oc3ccc(cc3Cl)C(OC3CC(C)(N)C(O)C(C)O3)C3NC(=O)C(NC(=O)C5NC(=O)C(CC(N)=O)NC(=O)C(NC(=O)C(CC(C)C)NC)C(O)c5ccc(c(Cl)c5)O4)c4ccc(O)c(c4)-c4c(O)cc(O)cc4C(C(=O)O)NC3=O)OC(CO)C(O)C2O)OC(C)C1O` (stereo not drawn) [Compound 191, 2-tridecynyl], the MIC in assay [1] was 8 µg/mL (≈ 4.52 µM); with Entercoccus faecalis 276, 4 µg/mL (≈ 2.26 µM); in assay [2], 1 µg/mL (≈ 0.565 µM).
Take `CNC(CC(C)C)C(=O)NC1C(=O)NC(CC(N)=O)C(=O)NC2C(=O)NC3C(=O)NC(C(=O)NC(C(=O)O)c4cc(O)cc(O)c4-c4cc3ccc4O)C(OC3CC(C)(N)C(O)C(C)O3)c3ccc(c(Cl)c3)Oc3cc2cc(c3OC2OC(CO)C(O)C(O)C2OC2CC(C)(NCc3ccc(NC(=O)c4ccc(F)cc4)cc3)C(O)C(C)O2)Oc2ccc(cc2Cl)C1O` (stereo not drawn) [Compound 193, 4-[(4-fluorobenzoyl)amino]benzyl]: the figures for the MIC (in assay [1]; with Entercoccus faecalis 276; in assay [2]) were 1 µg/mL (≈ 0.55 µM), at most 0.06 µg/mL and at most 0.06 µg/mL, respectively.
In the case of `CNC(CC(C)C)C(=O)NC1C(=O)NC(CC(N)=O)C(=O)NC2C(=O)NC3C(=O)NC(C(=O)NC(C(=O)O)c4cc(O)cc(O)c4-c4cc3ccc4O)C(OC3CC(C)(N)C(O)C(C)O3)c3ccc(c(Cl)c3)Oc3cc2cc(c3OC2OC(CO)C(O)C(O)C2OC2CC(C)(NCCCCCCCCOc3ccccc3)C(O)C(C)O2)Oc2ccc(cc2Cl)C1O` (stereo not drawn) [Compound 195, 8-phenoxyoctyl], the minimal inhibitory concentration (MIC) in assay [1] is 4 µg/mL (≈ 2.23 µM); in the assay with Entercoccus faecalis 276, 0.25 µg/mL (≈ 0.139 µM); in assay [2], at most 0.06 µg/mL.
For `CNC(CC(C)C)C(=O)NC1C(=O)NC(CC(N)=O)C(=O)NC2C(=O)NC3C(=O)NC(C(=O)NC(C(=O)O)c4cc(O)cc(O)c4-c4cc3ccc4O)C(OC3CC(C)(N)C(O)C(C)O3)c3ccc(c(Cl)c3)Oc3cc2cc(c3OC2OC(CO)C(O)C(O)C2OC2CC(C)(NCCCCCCCCCCc3ccccc3)C(O)C(C)O2)Oc2ccc(cc2Cl)C1O` (stereo not drawn) [Compound 197, 10-phenyldecyl] the same measures were 4 µg/mL (≈ 2.21 µM), 1 µg/mL (≈ 0.553 µM) and 0.25 µg/mL (≈ 0.138 µM).
With `CNC(CC(C)C)C(=O)NC1C(=O)NC(CC(N)=O)C(=O)NC2C(=O)NC3C(=O)NC(C(=O)NC(C(=O)O)c4cc(O)cc(O)c4-c4cc3ccc4O)C(OC3CC(C)(N)C(O)C(C)O3)c3ccc(c(Cl)c3)Oc3cc2cc(c3OC2OC(CO)C(O)C(O)C2OC2CC(C)(NCCCCCCCCBr)C(O)C(C)O2)Oc2ccc(cc2Cl)C1O` (stereo not drawn) [Compound 198, 8-bromooctyl], the MIC is 1 µg/mL (≈ 0.561 µM) in assay [1], 0.25 µg/mL (≈ 0.14 µM) with Entercoccus faecalis 276 and at most 0.06 µg/mL in assay [2].
The matching figures for `CC#CCCCCCCCCCCNC1(C)CC(OC2C(Oc3c4cc5cc3Oc3ccc(cc3Cl)C(OC3CC(C)(N)C(O)C(C)O3)C3NC(=O)C(NC(=O)C5NC(=O)C(CC(N)=O)NC(=O)C(NC(=O)C(CC(C)C)NC)C(O)c5ccc(c(Cl)c5)O4)c4ccc(O)c(c4)-c4c(O)cc(O)cc4C(C(=O)O)NC3=O)OC(CO)C(O)C2O)OC(C)C1O` (stereo not drawn) [Compound 199, 11-tridecynyl]: 4 µg/mL (≈ 2.26 µM), 1 µg/mL (≈ 0.565 µM) and at most 0.06 µg/mL.
Take `CNC(CC(C)C)C(=O)NC1C(=O)NC(CC(N)=O)C(=O)NC2C(=O)NC3C(=O)NC(C(=O)NC(C(=O)O)c4cc(O)cc(O)c4-c4cc3ccc4O)C(OC3CC(C)(N)C(O)C(C)O3)c3ccc(c(Cl)c3)Oc3cc2cc(c3OC2OC(CO)C(O)C(O)C2OC2CC(C)(NCCCCCCCCOc3ccc(OC)cc3)C(O)C(C)O2)Oc2ccc(cc2Cl)C1O` (stereo not drawn) [Compound 200, 8-[4-methoxyphenoxy]octyl]: the figures for the MIC (in assay [1]; against Entercoccus faecalis 276; in assay [2]) were 2 µg/mL (≈ 1.09 µM), 0.5 µg/mL (≈ 0.274 µM) and at most 0.06 µg/mL, respectively.
